Test results from patent publication US6187754A, “Sialyl-Lewisa and sialyl-Lewisx epitode analogues” (GlycoTech Corp., priority 1996, dated 2001).

Experiments:
[1] = Remark on solubility in NMR characterisation; type: physicochemical; conditions: CD3OD-D2O-CDCl3 (NMR solvent); no 13C NMR
[2] = Remark on oxidation sensitivity in NMR characterisation; type: physicochemical; conditions: no long-term 13C-NMR measurement

SMILES | solubility [1] | sensitivity to oxidation in organic solvents [2]
COC(=O)CCCCCCCCO[C@@H]1O[C@H](CO)[C@@H](O[C@@H]2O[C@H](CO)[C@H](O)[C@H](O[C@]3(C(=O)O)C[C@H](O)[C@@H](NC(C)=O)[C@H]([C@H](O)[C@H](O)CO)O3)[C@H]2O)[C@H](O)[C@H]1NC(=O)c1cnc2nc(N)nc(O)c2n1 [(59)] | poor solubility | 
COC(=O)CCCCCCCCO[C@@H]1O[C@H](CO)[C@@H](O)[C@H](O[C@@H]2O[C@H](CO)[C@H](O)[C@H](O[C@]3(C(=O)O)C[C@H](O)[C@@H](NC(C)=O)[C@H]([C@H](O)[C@H](O)CO)O3)[C@H]2O)[C@H]1NC(=O)c1ccc(O)c(O)c1 [(73)] |  | sensitivity of the compound to oxidation in organic solvents
